Results taken from patent publication US6905716B2, “Propionic acid based preservative agent for animal and vegetable products” (TINE Norske Meierier BA, priority 2000, dated 2005).

Key:
grass = test: Ensilage of grass in preserving jars, Example 4; details: laboratory silos
Procedure: The jars were stored in a climatic test chamber at 20° C. For the control without ensiling agent, water was added in a volume equivalent to 15 weight % FLP with and without bacteria. The additive of 40% weight FLP was added in an amount corresponding to 6 liters/tonne of grass. The FLP consisted of ¾ lactose and salts and ¼ organic acids (the ratio of propionic acid to lactic acid was 1:3). The agent with bacteria contained 8 log10 colony forming units of lactic acid bacteria per ml FLP and <8 log10 cfu propionic acid bacteria per ml FLP.

[1] = tested on: undesirable microorganisms; details: typically 0.1-0.5 g/l; potassium sorbate and/or sodium benzoate

Row | Compound | silage effluent, formic acid compared with addition of FLP (grass) | risk of contamination by undesirable microorganisms during fermentation [1]
1 | O=CO [formic acid] | More silage effluent | –
2 | C/C=C/C=C/C(=O)[O-].[K+] [potassium sorbate] | – | reduced the risk of contamination
3 | O=C([O-])c1ccccc1.[Na+] [sodium benzoate] | – | reduced the risk of contamination
